Experimental data: the supplement of paper PMC10307832

Key:
Assay in all cases: relative viability (nuclei count vs DMSO), 5 days (fraction); higher = more cells survive
MLN4924 + Foretinib = compound: NS(=O)(=O)OC[C@@H]1C[C@@H](n2ccc3c(N[C@H]4CCc5ccccc54)ncnc32)C[C@@H]1O [MLN4924] + COc1cc2c(Oc3ccc(NC(=O)C4(C(=O)Nc5ccc(F)cc5)CC4)cc3F)ccnc2cc1OCCCN1CCOCC1 [Foretinib] (partner 0.25 µM)
Method in brief: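 Dosing by pin tool came one day after lung cancer cell lines were seeded in 1536-well plates, using either one drug or a fixed anchor-drug dose plus five library-drug doses (not always all listed) in √10 steps. After 5 days, nuclei were counted on 4× images. Relative viability is treated-well nuclei count divided by vehicle-well nuclei count, and values are medians of duplicate plates.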

GSK126 = compound: CC[C@H](C)N1C=C(C2=C(C=C(C=C21)C3=CN=C(C=C3)N4CCNCC4)C(=O)NCC5=C(C=C(NC5=O)C)C)C [GSK126]
Method in brief: (§1)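 Lung cancer cell lines in 1536-well plates were kept overnight at 37 °C, then pinned with five library-drug doses (not always all listed) spaced by √10 on vehicle-anchored plates. After 5 days without medium change, cells were fixed, permeabilised and Hoechst-stained in one step, imaged at 4×, and nuclei were counted with MetaXpress. Viability is treated-well nuclei divided by vehicle-well nuclei, taken as the median over plates. Plates passed only with control CV below 25% and at least one doubling.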

MLN4924 = compound: NS(=O)(=O)OC[C@@H]1C[C@@H](n2ccc3c(N[C@H]4CCc5ccccc54)ncnc32)C[C@@H]1O [MLN4924]
Method in brief: as §1

Carboplatin = compound: C1CC(C1)(C(=O)O)C(=O)O.[NH2-].[NH2-].[Pt+2] [Carboplatin]
Method in brief: as §1

Cell Line	relative viability (MLN4924 + Foretinib; first compound 0.04 µM)	relative viability (MLN4924 + Foretinib; first compound 0.1265 µM)	relative viability (MLN4924 + Foretinib; first compound 0.4 µM)	relative viability (MLN4924 + Foretinib; first compound 1.265 µM)	relative viability (MLN4924 + Foretinib; first compound 4 µM)	relative viability (GSK126; 0.08 µM)	relative viability (GSK126; 0.253 µM)	relative viability (GSK126; 0.8 µM)	relative viability (GSK126; 2.53 µM)	relative viability (GSK126; 8 µM)	relative viability (MLN4924; 0.04 µM)	relative viability (MLN4924; 0.1265 µM)	relative viability (MLN4924; 0.4 µM)	relative viability (MLN4924; 1.265 µM)	relative viability (MLN4924; 4 µM)	relative viability (Carboplatin; 0.08 µM)	relative viability (Carboplatin; 0.253 µM)	relative viability (Carboplatin; 0.8 µM)	relative viability (Carboplatin; 2.53 µM)	relative viability (Carboplatin; 8 µM)
NCI-H1734	0.938	0.866	0.241	0.145	0.134	1.13	0.981	0.986	1.03	1.01	1.02	0.963	0.306	0.145	0.155	1.07	1.04	0.991	1.03	0.875
NCI-H1651	0.74	0.754	0.656	0.436	0.173	1.09	0.957	0.956	1.05	1.09	1.02	1.04	0.967	0.503	0.202	0.996	1.01	0.948	0.861	0.679
PC-14	1.1	0.852	0.43	0.174	0.139	1.02	1.01	0.935	1.03	0.942	1.04	0.93	0.624	0.153	0.111	1.09	0.998	0.997	0.684	0.309
NCI-H358	0.781	0.694	0.397	0.0949	0.094	1.07	0.965	0.914	1.05	1.01	1.02	0.904	0.327	0.201	0.213	1.25	1.07	1.06	0.891	0.928
NCI-H1915	1.07	0.929	0.906	0.314	0.232	1.05	0.978	1.01	0.973	0.994	0.958	0.911	0.692	0.219	0.224	1.03	1.02	0.971	0.932	0.737
Calu-6	0.699	0.322	0.209	0.0838	0.0789	1.1	1.05	0.954	1.07	1.03	0.914	0.653	0.24	0.141	0.134	1.01	1.03	0.973	0.851	0.491
EBC-1	0.109	0.15	0.147	0.082	0.0997	1.03	0.966	0.969	0.978	0.947	0.855	0.703	0.283	0.104	0.131	1.07	0.987	0.97	0.969	0.851
IA-LM	0.765	0.329	0.135	0.0463	0.0394	1.04	0.906	0.925	0.997	0.894	0.573	0.29	0.14	0.0648	0.0764	1.08	1.06	0.927	0.835	0.778
NCI-H1975	0.962	1.08	1.27	0.488	0.207	0.961	0.888	0.93	0.923	0.934	0.96	1.14	1.38	0.843	0.447	1	0.944	0.968	0.931	0.9
BEN	0.491	0.307	0.219	0.169	0.129	1.1	0.997	0.914	1.04	0.924	0.729	0.627	0.408	0.197	0.219	1.11	0.969	0.987	0.904	0.893
NCI-H1563	1.16	1.21	0.744	0.535	0.55	1.04	0.999	1.06	1.04	0.965	1.42	1.21	0.818	0.494	0.511	0.963	1	1.03	0.946	1.02
EPLC-272H	0.582	0.216	0.0552	0.0953	0.109	1.1	1.01	0.936	1.08	1.04	0.873	0.637	0.0627	0.119	0.173	1.2	1.11	1.07	0.924	0.919
NCI-H2228	1.07	0.69	0.512	0.302	0.147	1.21	0.992	1.04	1.12	1.07	0.723	1.08	0.435	0.171	0.205	1.27	1.16	0.91	0.941	0.687
NCI-H661	0.902	0.776	0.67	0.393	0.399	1.03	0.945	0.986	1.03	1	0.894	0.857	0.686	0.421	0.426	0.993	1.01	0.984	0.938	0.903
NCI-H1299	1.01	0.82	0.499	0.33	0.176	1.02	0.994	0.988	1	0.998	1.01	0.823	0.676	0.287	0.212	1.05	0.98	1.02	0.969	0.943
LU99A	0.531	0.365	0.314	0.188	0.236	1.04	0.985	0.912	1.02	0.904	0.918	0.601	0.405	0.178	0.195	1.15	1.08	1.03	0.901	0.702

Cell Line	relative viability (MLN4924 + Foretinib; first compound 0.04 µM)	relative viability (MLN4924 + Foretinib; first compound 0.1265 µM)	relative viability (MLN4924 + Foretinib; first compound 0.4 µM)	relative viability (MLN4924 + Foretinib; first compound 1.265 µM)	relative viability (MLN4924 + Foretinib; first compound 4 µM)	relative viability (GSK126; 0.08 µM)	relative viability (GSK126; 0.253 µM)	relative viability (GSK126; 0.8 µM)	relative viability (GSK126; 2.53 µM)	relative viability (GSK126; 8 µM)	relative viability (MLN4924; 0.04 µM)	relative viability (MLN4924; 0.1265 µM)	relative viability (MLN4924; 0.4 µM)	relative viability (MLN4924; 1.265 µM)	relative viability (MLN4924; 4 µM)	relative viability (Carboplatin; 0.08 µM)	relative viability (Carboplatin; 0.253 µM)	relative viability (Carboplatin; 0.8 µM)	relative viability (Carboplatin; 2.53 µM)	relative viability (Carboplatin; 8 µM)
NCI-H2405	1.08	0.928	0.76	0.319	0.293	1.03	0.946	0.98	0.984	1.03	1.06	0.979	0.586	0.29	0.27	1.1	1	1.05	1.03	0.885
NCI-H2009	1.02	0.494	0.344	0.193	0.104	1.12	0.997	0.988	0.988	1.06	0.823	0.439	0.287	0.136	0.0977	1.05	0.971	0.95	0.951	0.683
HOP-62	0.669	0.312	0.246	0.0894	0.0942	1.01	1.02	1.03	0.968	0.973	0.814	0.74	0.226	0.067	0.101	1.03	1.03	1.06	0.981	0.833
NCI-H2342	1.17	1.06	1.24	0.76	0.472	1.12	1.04	1.07	1.05	1.17	1.18	0.931	0.97	0.788	0.57	1.06	0.987	1.07	1.02	0.873
NCI-H727	0.863	0.737	0.515	0.285	0.335	1.02	0.946	0.849	0.997	1.02	0.844	0.587	0.5	0.307	0.326	1.11	0.841	0.94	0.83	0.671
COR-L 105	0.697	0.654	0.396	0.292	0.258	1.03	0.87	0.856	1.02	0.971	0.775	0.773	0.431	0.258	0.336	0.975	0.939	0.845	0.831	0.52
PC-3 [JPC-3]	1.05	0.976	0.688	0.375	0.293	1.03	0.999	1.06	1.03	1.12	0.994	1.1	0.397	0.432	0.396	1.14	1.08	1.05	0.992	0.96
NCI-H2347	0.832	0.906	0.567	0.528	0.402	1.08	0.976	1.04	1.05	1	0.963	0.975	0.584	0.406	0.386	1.05	1	1.07	1.06	0.909
SW 1573	0.967	0.982	0.875	0.156	0.0921	1.21	1.08	1.02	1.05	1.24	1.16	0.954	0.332	0.0817	0.0856	1.05	1.02	0.992	0.972	0.702
NCI-H838	0.684	0.503	0.22	0.174	0.16	1.01	0.919	0.913	0.971	0.926	0.93	0.488	0.325	0.158	0.219	1.03	1.03	0.949	0.921	0.951
HCC-78	0.583	0.653	0.84	0.247	0.194	0.984	1.06	1	0.976	0.904	0.968	0.771	0.849	0.323	0.265	1.09	0.982	1.02	0.927	0.905
A-427	0.742	0.236	0.264	0.185	0.178	1.09	1.02	0.97	1.09	1.07	0.515	0.44	0.31	0.218	0.234	1.07	1	1	1.07	1.01
CAL-12T	1.01	1.03	0.463	0.422	0.181	1.09	0.986	0.973	1.07	1.17	0.854	0.82	0.485	0.344	0.198	1.02	1.04	1	1.07	0.877
SK-MES-1	1.11	1.11	0.646	0.213	0.239	1.03	0.999	0.985	1.04	1.08	0.999	0.846	0.563	0.222	0.221	1.07	0.991	1.02	0.974	0.918
NCI-H460	1.01	1.09	0.855	0.297	0.0485	1.08	1.06	0.984	1.01	1.05	0.976	0.985	0.914	0.288	0.105	1.02	0.981	0.994	0.915	0.412
ABC-1	1.07	1.07	0.301	0.189	0.248	1.11	1.03	0.992	1.15	1.05	1.06	0.965	0.384	0.249	0.283	1.04	0.873	0.985	0.88	0.587
